Consider 16 molecules from PubChem BioAssay AID328 (DTP/NCI, 2004).

Molecules are shown by their SMILES. Several values for one entry are separate records, joined by “and”; a condition that tells them apart may be missing. Equal values may be shown once. Inconclusive results and toxic doses are left out.

The test system of the assay is BDF1 mice, P388 leukemia ip, median survival T/C. Put plainly: NCI In Vivo Anticancer Drug Screen. Data for tumor model P388 Leukemia (intraperitoneal) in B6D2F1 (BDF1) mice. The settings on record: endpoint: median survival time, higher = longer survival. The method in brief:
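Vehicle-dosed animals serve as the reference; survival of compound-dosed, tumour-implanted mice is divided by it.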

The mark [1] stands for this setting: dose: 25.0 mg/kg/injection, schedule: Q01DX009 (ip), vehicle: saline.
Setting [2] is: dose: 50.0 mg/kg/injection, schedule: Q01DX009 (ip), vehicle: saline.
Where [3] appears, read: dose: 100.0 mg/kg/injection, schedule: Q01DX009 (ip), vehicle: saline.
Where [4] appears, read: dose: 100.0 mg/kg/injection, schedule: Q04DX003 (ip), vehicle: saline.
Where [5] appears, read: dose: 200.0 mg/kg/injection, schedule: Q01DX009 (ip), vehicle: saline.
[6] abbreviates: dose: 200.0 mg/kg/injection, schedule: Q04DX003 (ip), vehicle: saline.
Where [7] appears, read: dose: 50.0 mg/kg/injection, schedule: Q01DX009 (ip), vehicle: saline with Tween-80.
Where [8] appears, read: dose: 100.0 mg/kg/injection, schedule: Q01DX009 (ip), vehicle: saline with Tween-80.
The mark [9] stands for this setting: dose: 100.0 mg/kg/injection, schedule: Q01DX009 (ip), vehicle: Klucel (hydroxypropylcellulose) (HPC).
[10] abbreviates: dose: 200.0 mg/kg/injection, schedule: Q01DX009 (ip), vehicle: Klucel (hydroxypropylcellulose) (HPC).
The mark [11] stands for this setting: dose: 400.0 mg/kg/injection, schedule: Q01DX009 (ip), vehicle: Klucel (hydroxypropylcellulose) (HPC).
[12] abbreviates: dose: 100.0 mg/kg/injection, schedule: Q04DX003 (ip), vehicle: saline with Tween-80.
[13] abbreviates: dose: 200.0 mg/kg/injection, schedule: Q01DX009 (ip), vehicle: saline with Tween-80.
Setting [14] is: dose: 400.0 mg/kg/injection, schedule: Q04DX003 (ip), vehicle: saline with Tween-80.

Consider `O=Cc1c[nH]c2nccnc12`, for which the T/C under setting [1] was 98 % of control; the T/C under setting [2] is 101 % of control; the T/C under setting [3] is 99 % of control and 115 % of control; the T/C under setting [4] is 100 % of control; the T/C under setting [5] is 107 % of control and 108 % of control; the T/C under setting [6] is 101 % of control. Also, the T/C (dose: 400.0 mg/kg/injection, schedule: Q04DX003 (ip), vehicle: saline) was 103 % of control.

In the case of `O=S1(=O)CCCO1`, the T/C was 95 % of control under setting [7] and 113 % of control under setting [8].

Take `OC1(O)COC(c2ccccc2)OC1`: the T/C reads like this: (dose: 100.0 mg/kg/injection, schedule: Q01DX001 (ip), vehicle: Klucel (hydroxypropylcellulose) (HPC)) 104 % of control; under setting [9], 120 % of control; (dose: 200.0 mg/kg/injection, schedule: Q01DX001 (ip), vehicle: Klucel (hydroxypropylcellulose) (HPC)) 104 % of control; under setting [10], 110 % of control; (dose: 400.0 mg/kg/injection, schedule: Q01DX001 (ip), vehicle: Klucel (hydroxypropylcellulose) (HPC)) 100 % of control; under setting [11], 115 % of control.

On to `OC1(C2(O)c3ccccc3Oc3ccccc32)c2ccccc2Oc2ccccc21`, for which the T/C by setting is: (dose: 50.0 mg/kg/injection, schedule: Q01DX001 (ip), vehicle: saline) 95 % of control; (dose: 100.0 mg/kg/injection, schedule: Q01DX001 (ip), vehicle: saline) 90 % of control; (dose: 200.0 mg/kg/injection, schedule: Q01DX001 (ip), vehicle: saline) 90 % of control.

Consider `CC1C=CCC2C(=O)OC(=O)C12` (configuration not stated), for which the T/C is 100 % of control (dose: 25.0 mg/kg/injection, schedule: Q04DX003 (ip), vehicle: saline with Tween-80); 100 % of control (dose: 50.0 mg/kg/injection, schedule: Q04DX003 (ip), vehicle: saline with Tween-80); 100 % of control under setting [12].

Take `CC(=O)N1C(=O)NC(=O)C1(C)c1ccco1` (configuration not stated): the T/C reads like this: (dose: 25.0 mg/kg/injection, schedule: Q01DX009 (ip), vehicle: saline with Tween-80) 122 % of control; under setting [7], 112 % of control; under setting [8], 103 % of control and 122 % of control; under setting [12], 109 % of control and 113 % of control; under setting [13], 92 % of control and 115 % of control; (dose: 200.0 mg/kg/injection, schedule: Q04DX003 (ip), vehicle: saline with Tween-80) 104 % of control and 122 % of control. Besides, the T/C is 87 % of control (dose: 400.0 mg/kg/injection, schedule: Q01DX009 (ip), vehicle: saline with Tween-80) and 90 % of control under setting [14].

Turning to `CC(=O)C(C)=P(c1ccccc1)(c1ccccc1)c1ccccc1`, the T/C reads like this: under setting [1], 102 % of control; under setting [2], 120 % of control; under setting [5], 113 % of control; (dose: 400.0 mg/kg/injection, schedule: Q01DX009 (ip), vehicle: saline) 98 % of control.

With `CCCCCC[n+]1cccc(C(N)=O)c1`, the T/C runs as follows: (dose: 50.0 mg/kg/injection, schedule: Q04DX003 (ip), vehicle: saline) 104 % of control; under setting [4], 100 % of control; under setting [6], 95 % of control.

As to `c1ccc2c(c1)NC1(CCCCC1)S2`, the T/C is, setting by setting: under setting [9], 104 % of control; (dose: 100.0 mg/kg/injection, schedule: Q04DX003 (ip), vehicle: Klucel (hydroxypropylcellulose) (HPC)) 95 % of control; under setting [10], 104 % of control; (dose: 200.0 mg/kg/injection, schedule: Q04DX003 (ip), vehicle: Klucel (hydroxypropylcellulose) (HPC)) 105 % of control; under setting [11], 109 % of control; (dose: 400.0 mg/kg/injection, schedule: Q04DX003 (ip), vehicle: Klucel (hydroxypropylcellulose) (HPC)) 105 % of control.

Regarding `CNC(=S)/N=C(\N)n1nc(C)cc1C`, the T/C reads like this: (dose: 15.0 mg/kg/injection, schedule: Q01DX009 (ip), vehicle: saline with Tween-80) 104 % of control; (dose: 30.0 mg/kg/injection, schedule: Q01DX009 (ip), vehicle: saline with Tween-80) 112 % of control; (dose: 60.0 mg/kg/injection, schedule: Q01DX009 (ip), vehicle: saline with Tween-80) 112 % of control.

As to `Cc1ccc2c(c1)CCCN2C=O`, the T/C by setting is: under setting [7], 104 % of control; under setting [8], 109 % of control; under setting [13], 123 % of control.

In the case of `C=C1C(=O)O[C@@H]2[C@H]3O[C@]3(C)CCC=C(C)CC[C@@H]12`, the T/C is, setting by setting: (dose: 6.25 mg/kg/injection, schedule: Q01DX009 (ip), vehicle: alcohol) 90 % of control; (dose: 12.5 mg/kg/injection, schedule: Q01DX009 (ip), vehicle: alcohol) 122 % of control; (dose: 25.0 mg/kg/injection, schedule: Q01DX009 (ip), vehicle: alcohol) 122 % of control; (dose: 50.0 mg/kg/injection, schedule: Q01DX009 (ip), vehicle: alcohol) 113 % of control.

For `O=[N+]([O-])O.[Ag]`, the T/C (dose: 10.0 mg/kg/injection, schedule: Q01DX009 (ip), vehicle: saline with Tween-80) was 96 % of control; the T/C (dose: 40.0 mg/kg/injection, schedule: Q01DX009 (ip), vehicle: saline with Tween-80) was 92 % of control; the T/C (dose: 40.0 mg/kg/injection, schedule: Q04DX003 (ip), vehicle: saline with Tween-80) is 90 % of control.

Turning to `CN(C(=N)N)c1ccc(C(=O)Oc2ccc([N+](=O)[O-])cc2)cc1`, the T/C by setting is: (dose: 12.5 mg/kg/injection, schedule: Q01DX009 (ip), vehicle: water) 100 % of control; (dose: 18.75 mg/kg/injection, schedule: Q04DX003 (ip), vehicle: water) 104 % of control; (dose: 25.0 mg/kg/injection, schedule: Q01DX009 (ip), vehicle: water) 100 % of control; (dose: 37.5 mg/kg/injection, schedule: Q04DX003 (ip), vehicle: water) 109 % of control; (dose: 50.0 mg/kg/injection, schedule: Q01DX009 (ip), vehicle: water) 108 % of control; (dose: 75.0 mg/kg/injection, schedule: Q04DX003 (ip), vehicle: water) 104 % of control and 117 % of control. For the same molecule, the T/C was 104 % of control (dose: 100.0 mg/kg/injection, schedule: Q01DX009 (ip), vehicle: water); 99 % of control (dose: 100.0 mg/kg/injection, schedule: Q04DX003 (ip), vehicle: water); 117 % of control (dose: 150.0 mg/kg/injection, schedule: Q04DX003 (ip), vehicle: water); 89 % of control (dose: 200.0 mg/kg/injection, schedule: Q04DX003 (ip), vehicle: water); 89 % of control (dose: 400.0 mg/kg/injection, schedule: Q04DX003 (ip), vehicle: water).

Turning to `O=[N+]([O-])/C=C/c1ccc2ccccc2c1`, the T/C is, setting by setting: (dose: 88.0 mg/kg/injection, schedule: Q04DX003 (ip), vehicle: saline sonified) 116 % of control; (dose: 100.0 mg/kg/injection, schedule: Q01DX009 (ip), vehicle: saline sonified) 100 % of control; under setting [12], 120 % of control; (dose: 132.0 mg/kg/injection, schedule: Q04DX003 (ip), vehicle: saline sonified) 116 % of control; (dose: 200.0 mg/kg/injection, schedule: Q04DX003 (ip), vehicle: saline sonified) 111 % of control; (dose: 300.0 mg/kg/injection, schedule: Q04DX003 (ip), vehicle: saline sonified) 116 % of control. For the same molecule, the T/C under setting [14] is 90 % of control.

As for `C=CCOP(=O)(N1CC1C)N1CC1C` (configuration not stated), the T/C runs as follows: (dose: 6.25 mg/kg/injection, schedule: Q01DX009 (ip), vehicle: saline) 106 % of control; (dose: 12.5 mg/kg/injection, schedule: Q01DX009 (ip), vehicle: saline) 99 % of control; under setting [1], 106 % of control; (dose: 30.0 mg/kg/injection, schedule: Q04DX003 (ip), vehicle: saline) 109 % of control; (dose: 45.0 mg/kg/injection, schedule: Q04DX003 (ip), vehicle: saline) 118 % of control; (dose: 75.0 mg/kg/injection, schedule: Q01DX009 (ip), vehicle: saline) 150 % of control and 161 % of control. For the same molecule, the T/C was 117 % of control under setting [3]; 180 % of control and 188 % of control under setting [4]; 188 % of control (dose: 150.0 mg/kg/injection, schedule: Q04DX003 (ip), vehicle: saline).
